According to US20150196022A1, “ABSORBENT PAD HAVING THREE OR MORE MODULES TO ENHANCE PRESERVATION OF FLOWERS” (Paper-Pak Industries, priority 2014, published 2015):

Test: Na2S2O5 in an open environment: SO2 concentration in air measured daily
Assay type: physicochemical
Description: FIG. 12A and FIG. 12B show the results of a test that was performed to establish how Na2S2O5 reacts with the environment, and the effect of changes in relative humidity.
0.1 g of Na2S2O5 on sampling “boats” were placed on top of a counter; i.e., in an “open” environment. The concentration of SO2 gas (in parts per million, ppm) in the air at about 2.5 cm (about 1″) above the Na2S2O5 was measured daily for more than 50 days of testing. The relative humidity was also measured for each day of testing.
This is in agreement with the known chemistry of Na2S2O5.

Compound: O=S([O-])S(=O)(=O)[O-].[Na+].[Na+] [Na2S2O5, sodium metabisulfite]
- average SO2 concentration generated (0.1 g Na2S2O5, open environment, about 2.5 cm above sample, up to 50 days): 0.5 ppm
- duration of continuous SO2 generation (summary of the several tests): more than 50 days
